According to PubChem BioAssay AID1259407 (Chemical Carcinogenesis Research Information System (CCRIS), 2018):
Activity calls are given as the source filed them. The rule behind the calls is not given here.

Tested on: CCRIS mutagenicity, Ames/micronucleus/aberration tests
Assay: CCRIS mutagenicity studies

Structure (SMILES): c1ccccc1
- mutagenic call (End Point: IN VITRO CHROMOSOMAL ABERRATIONS, Test System: BOVINE PERIPHERAL LYMPHOCYTES, Metabolic Activation: NONE): active; positive (structural changes)
- mutagenic call (End Point: IN VITRO CHROMOSOMAL ABERRATIONS, Test System: BOVINE PERIPHERAL LYMPHOCYTES, Metabolic Activation: NONE, Method: FISH): active; positive (structural changes)
- mutagenic call (End Point: IN VITRO CHROMOSOMAL ABERRATIONS, Test System: BOVINE PERIPHERAL LYMPHOCYTES, Metabolic Activation: RAT, S-9, AROCLOR 1254): active; positive (structural changes)
- mutagenic call (End Point: IN VITRO CHROMOSOMAL ABERRATIONS, Test System: CHO CELLS, Metabolic Activation: NONE): inactive; negative
- mutagenic call (End Point: IN VITRO CHROMOSOMAL ABERRATIONS, Test System: CHO CELLS, Metabolic Activation: RAT, LIVER, S-9, AROCLOR 1254): inactive; negative
- mutagenic call (End Point: IN VITRO MICRONUCLEUS, Test System: AHH-1 CELLS, Metabolic Activation: NONE): inactive; negative
- mutagenic call (End Point: IN VITRO MICRONUCLEUS, Test System: BOVINE LYMPHOCYTES, Metabolic Activation: NONE): active; positive
- mutagenic call (End Point: IN VITRO MICRONUCLEUS, Test System: BOVINE LYMPHOCYTES, Metabolic Activation: S-9 MIX, AROCLOR 1254): active; positive
- mutagenic call (End Point: IN VITRO MICRONUCLEUS, Test System: CHL/IU CELLS, Metabolic Activation: RAT, LIVER, S-9, PHENOBARBITAL AND 5,6-BENZOFLAVONE): active; positive
- mutagenic call (End Point: IN VITRO MICRONUCLEUS, Test System: MCL-5 CELLS, Metabolic Activation: NONE): active; positive
- mutagenic call (End Point: IN VITRO MICRONUCLEUS, Test System: V79 CELLS, Metabolic Activation: RAT, LIVER, S-9, AROCLOR 1254): inactive; negative
- mutagenic call (End Point: IN VIVO CHROMOSOMAL ABERRATIONS, Test System: DUAL COLOR PAINTING OF CHROMOSOMES 8 AND 21 FROM PERIPHERAL LYMPHOCYTES, METAPHASE SPREADS, Species: HUMAN, Strain/Sex: MALE, FEMALE, Route: INHALATION (WORKPLACE), Method: FISH): active; positive
- mutagenic call (End Point: IN VIVO CHROMOSOMAL ABERRATIONS, Test System: HUMAN PERIPHERAL LYMPHOCYTES, Species: HUMAN, Route: INHALATION (WORKPLACE), Method: FISH): breaks in chromosomes 1 and 9
- mutagenic call (End Point: IN VIVO CHROMOSOMAL ABERRATIONS, Test System: LYMPHOCYTES, Species: HUMAN, Route: PROBABLY INHALATION, Method: FISH (INTERPHASE OR METAPHASE; CHROMOSOMES 7, 8, 9)): active; positive (structural and ploidy changes)
- mutagenic call (End Point: IN VIVO CHROMOSOMAL ABERRATIONS, Test System: PERIPHERAL BLOOD LYMPHOCYTES, Species: HUMAN (COKE OVEN WORKERS), Route: INHALATION, Method: FISH): active; positive (monosomy and trisomy of chromosomes 8 and 21)
- mutagenic call (End Point: IN VIVO CHROMOSOMAL ABERRATIONS, Test System: PERIPHERAL BLOOD LYMPHOCYTES, Species: HUMAN (PETROLEUM REFINERY WORKERS), Strain/Sex: MALE, Route: INDUSTRIAL EXPOSURE): active; positive
- mutagenic call (End Point: IN VIVO CHROMOSOMAL ABERRATIONS, Test System: PERIPHERAL HUMAN LYMPHOCYTES, Species: HUMAN, Route: INDUSTRIAL EXPOSURE (INHALATION)): active; positive (ploidy)
- mutagenic call (End Point: IN VIVO MICRONUCLEUS, Test System: BONE MARROW POLYCHROMATIC ERYTHROCYTES, Species: MOUSE, Strain/Sex: CD-1/MALE, Route: ORAL (GAVAGE)): active; positive
- mutagenic call (End Point: IN VIVO MICRONUCLEUS, Test System: BONE MARROW, Species: MOUSE, Strain/Sex: B6C3F1/MALE, Route: GAVAGE): active; positive
- mutagenic call (End Point: IN VIVO MICRONUCLEUS, Test System: SPLENOCYTES, Species: MOUSE, Strain/Sex: CD-1/MALE, Route: ORAL (GAVAGE)): active; positive
- mutagenic call (End Point: In vivo micronucleus, Test System: Bone marrow polychromatic erythrocytes, Species: Mouse, Strain/Sex: CD-1/Male, Route: Inhalation): active; positive
- mutagenic call (End Point: In vivo micronucleus, Test System: Peripheral blood normochromatic erythrocytes, Species: Mouse, Strain/Sex: B6.129-Cdkn2atm1Rdp (i.e. Haploinsufficient p16Ink4a/p19Arf)/Female, Route: Gavage): active; positive (deletions in the cdkn2a gene predispose rodents to cancer at multiple
- mutagenic call (End Point: In vivo micronucleus, Test System: Peripheral blood normochromatic erythrocytes, Species: Mouse, Strain/Sex: B6.129-Cdkn2atm1Rdp (i.e. Haploinsufficient p16Ink4a/p19Arf)/Male, Route: Gavage): active; positive (deletions in the cdkn2a gene predispose rodents to cancer at multiple
- mutagenic call (Test System: AMES SALMONELLA TYPHIMURIUM, Strain/Indicator: TA97, Metabolic Activation: HAMSTER LIVER S-9, AROCLOR 1254 (10 OR 30%), Method: PREINCUBATION): inactive; negative
- mutagenic call (Test System: AMES SALMONELLA TYPHIMURIUM, Strain/Indicator: TA97, Metabolic Activation: NONE, Method: PREINCUBATION): inactive; negative
- mutagenic call (Test System: AMES SALMONELLA TYPHIMURIUM, Strain/Indicator: TA97, Metabolic Activation: NONE, Method: STANDARD PLATE): inactive; negative
- mutagenic call (Test System: AMES SALMONELLA TYPHIMURIUM, Strain/Indicator: TA97, Metabolic Activation: RAT LIVER S-9, AROCLOR 1254 (10 OR 30%), Method: PREINCUBATION): inactive; negative
- mutagenic call (Test System: AMES SALMONELLA TYPHIMURIUM, Strain/Indicator: TA97, Metabolic Activation: RAT, LIVER, S-9, AROCLOR 1254, Method: STANDARD PLATE): inactive; negative
- mutagenic call (Test System: AMES SALMONELLA TYPHIMURIUM, Strain/Indicator: TA97, Metabolic Activation: S-9, Method: STANDARD PLATE): inactive; negative
- mutagenic call (Test System: AMES SALMONELLA TYPHIMURIUM, Strain/Indicator: TA98, Metabolic Activation: HAMSTER LIVER S-9, AROCLOR 1254 (10 OR 30%), Method: PREINCUBATION): inactive; negative
- mutagenic call (Test System: AMES SALMONELLA TYPHIMURIUM, Strain/Indicator: TA98, Metabolic Activation: NONE, Method: PREINCUBATION): inactive; negative
- mutagenic call (Test System: AMES SALMONELLA TYPHIMURIUM, Strain/Indicator: TA98, Metabolic Activation: RAT LIVER S-9, AROCLOR 1254 (10 OR 30%), Method: PREINCUBATION): inactive; negative
- mutagenic call (Test System: AMES SALMONELLA TYPHIMURIUM, Strain/Indicator: TA98, Metabolic Activation: RAT, LIVER, S-9, AROCLOR 1254, Method: DESICCATOR): inactive; negative
- mutagenic call (Test System: AMES SALMONELLA TYPHIMURIUM, Strain/Indicator: TA98, Metabolic Activation: RAT, LIVER, S-9, AROCLOR 1254, Method: STANDARD PLATE): inactive; negative
- mutagenic call (Test System: AMES SALMONELLA TYPHIMURIUM, Strain/Indicator: TA98, Metabolic Activation: RAT, LIVER, S-9, AROCLOR, Method: STANDARD PLATE): inactive; negative
- mutagenic call (Test System: AMES SALMONELLA TYPHIMURIUM, Strain/Indicator: TA98, Metabolic Activation: RAT, LIVER, S-9, ETHANOL, Method: STANDARD PLATE): inactive; negative
- mutagenic call (Test System: AMES SALMONELLA TYPHIMURIUM, Strain/Indicator: TA98, Metabolic Activation: RAT, LIVER, S-9, PHENOBARBITAL, Method: STANDARD PLATE): inactive; negative
- mutagenic call (Test System: AMES SALMONELLA TYPHIMURIUM, Strain/Indicator: TA98, Metabolic Activation: RAT, LIVER, S-9, PYRAZOLE, Method: STANDARD PLATE): inactive; negative
- mutagenic call (Test System: AMES SALMONELLA TYPHIMURIUM, Strain/Indicator: TA98, Metabolic Activation: S-9, Method: STANDARD PLATE): inactive; negative
- mutagenic call (Test System: AMES SALMONELLA TYPHIMURIUM, Strain/Indicator: TA100, Metabolic Activation: HAMSTER LIVER S-9, AROCLOR 1254 (10 OR 30%), Method: PREINCUBATION): inactive; negative
- mutagenic call (Test System: AMES SALMONELLA TYPHIMURIUM, Strain/Indicator: TA100, Metabolic Activation: NONE, Method: DESICCATOR): inactive; negative
- mutagenic call (Test System: AMES SALMONELLA TYPHIMURIUM, Strain/Indicator: TA100, Metabolic Activation: NONE, Method: PREINCUBATION): inactive; negative
- mutagenic call (Test System: AMES SALMONELLA TYPHIMURIUM, Strain/Indicator: TA100, Metabolic Activation: RAT LIVER S-9, AROCLOR 1254 (10 OR 30%), Method: PREINCUBATION): inactive; negative
- mutagenic call (Test System: AMES SALMONELLA TYPHIMURIUM, Strain/Indicator: TA100, Metabolic Activation: RAT, LIVER, S-9, AROCLOR 1254, Method: DESICCATOR): inactive; negative
- mutagenic call (Test System: AMES SALMONELLA TYPHIMURIUM, Strain/Indicator: TA100, Metabolic Activation: RAT, LIVER, S-9, AROCLOR 1254, Method: STANDARD PLATE): inactive; negative
- mutagenic call (Test System: AMES SALMONELLA TYPHIMURIUM, Strain/Indicator: TA100, Metabolic Activation: RAT, LIVER, S-9, AROCLOR, Method: STANDARD PLATE): inactive; negative
- mutagenic call (Test System: AMES SALMONELLA TYPHIMURIUM, Strain/Indicator: TA100, Metabolic Activation: RAT, LIVER, S-9, ETHANOL, Method: STANDARD PLATE): inactive; negative
